Patent publication US20250186510A1, “BACTERIAL COMPOSITION FOR USE IN TREATMENT OF SUBSTANCE USE DISORDER” (Bar-Ilan University, priority 2022, published 2025)
Entries after “also recorded” stand apart in the source; their conditions may differ.

Key:
[1] = system: gut microbial community of cocaine-trained rats; assay: Gut microbiota throughout cocaine self-administration (beta diversity); details: day 3 vs day 12, p=0.001
[2] = system: gut microbiota in feces of naïve rats; assay: Incubation of feces with cocaine and DHEA in vitro (16S rRNA sequencing, UniFrac, LEfSe)
Method: Bacterial taxa differences in fecal samples were analyzed using the Linear discriminant analysis effect size (LEfSe) method as a response for either cocaine or DHEA (0, 50, 100 and 500 μM). Stool of naïve rats was collected into 15 ml test tubes and stored under anaerobic conditions. The stool was homogenized using a vortex and mechanical stirring. After completion of the preparation, the fecal slurry was incubated at 37° C. under anaerobic conditions. Following a week of anaerobic incubation, DNA was extracted from the slurry, and 16S rRNA gene sequencing was performed (protocols described above).

[3] = system: cocaine-seeking behavior of rats; details: cited from earlier work
[4] = system: cocaine-seeking behavior of cocaine-trained rats; assay: Extinction training after cocaine self-administration, daily DHEA; details: DHEA 2 mg/kg IP daily, days 13-22, vs Coc-Vehicle
[5] = system: gut microbiota of cocaine-trained rats; assay: Gut microbiota composition (16S rRNA sequencing, UniFrac, ANCOM) after DHEA during extinction

SMILES	gut microbial community (beta diversity) over cocaine self-administration [1]	number of overrepresented bacterial features (LEfSe) ([2]; cocaine 100 μM vs PBS)	gut microbiota beta diversity (unweighted UniFrac distances) in vitro ([2]; cocaine 100 μM vs PBS, p=0.047)	number of overrepresented bacterial features (LEfSe) ([2]; cocaine 500 μM vs PBS)	changes in bacterial features (LEfSe) ([2]; DHEA 50 μM)	changes in bacterial features (LEfSe) ([2]; DHEA 100 μM)	gut microbiota composition (weighted UniFrac distances) in vitro ([2]; DHEA 100 μM vs PBS, p=0.036)	R. gnavus among overrepresented bacterial features ([2]; DHEA 500 μM)	number of overrepresented bacterial features (LEfSe) ([2]; DHEA 500 μM vs PBS)	gut microbiota composition (weighted UniFrac distances) in vitro ([2]; DHEA 500 μM vs PBS, p=0.02)	cocaine seeking behavior relative to maintenance levels ([3]; chronic exogenous DHEA 2 mg/kg, previous work)	cocaine-seeking behavior, self-administration model ([3]; pretreatment with DHEA, background)	cocaine-seeking behavior (active lever presses) during extinction [4]	gut microbiota beta diversity (PCoA of unweighted UniFrac distances) ([5]; day 22, coc-DHEA compared with saline-vehicle)	relative abundance of R. gnavus (ANCOM) ([5]; day 22, coc-DHEA vs cocaine-vehicle)
COC(=O)[C@H]1[C@@H](OC(=O)c2ccccc2)C[C@@H]2CC[C@H]1N2C [Cocaine, benzoylmethylecgonine]	significant change	12	significantly changed	15											
C[C@]12CC[C@H](O)CC1=CC[C@@H]1[C@@H]2CC[C@]2(C)C(=O)CC[C@@H]12 [DHEA, dehydroepiandrosterone]					no significant changes	no significant changes	significant change	none of them belonged to R. gnavus; also recorded: not R. gnavus	16	significant change	< 20%	attenuated cocaine-seeking behavior	significantly reduced cocaine-seeking behavior	resembled those of rats that received vehicle; also recorded: induces a microbiota more similar to the saline control	increase in the relative abundance of R. gnavus; also recorded: Levels of R. gnavus rose
